Measurements: US20040242547A1, “Arylazo-substituted imidazole for the treatment of stress urinary incontinence” (priority 2001, published 2004)

Assays:
[1] = tested on: human lower urinary tract smooth muscle strips (prostatic/urethral); assay: Agonist potency on human lower urinary tract smooth muscle strips (isometric tension, organ bath); format: cell-based; conditions: for EC50 / Emax: human LUT strips; for EC50: cocaine 10 μM, corticosterone 10 μM, propanolol 1 μM present, read-out: pEC50 (increase in developed tension) (converted); for Emax: relative to 100 mM potassium chloride, read-out: maximum response equivalent to % of the response to 100 mM potassium chloride
Protocol: Determinations were made of agonist potency on human LUT and blood vessel smooth muscle. Tissue sources: human lower urinary tract smooth muscle strips (prostatic/urethral) were obtained from patients undergoing transurethral resection of the prostate procedure for benign prostatic hyperplasia. Human mesenteric arteries (500-750 μm internal diameter) were obtained from patients undergoing bowel resection for carcinoma. Tissues were preserved in Krebs-bicarbonate solution at 4° C. from the time of surgery until used in functional experiments within 24 hours. Sections of mesenteric artery (5 mm in length) were set up between stainless steel stirrups after removal of the endothelium by gentle rubbing. Strips of prostatic/urethral smooth muscle (3×10 mm) and the mesenteric arteries were set up under 1 g resting tension in Krebs solution of composition (mM): NaCl 118.4; KCl 4.7; CaCl2 1.9; NaHCO3 25.0; MgSO4 1.2; KH2PO4 1.2; glucose 11.7, gassed with 5% CO2 in O2 and maintained at 37° C. The tension developed by all tissues was measured by means of isometric force transducers (Lectromed UFI 57G sensitivity) and recorded to computer via a Cambridge Electronic Design 1401 analogue to digital converter, using CHART software. Tissues were equilibrated for 60 minutes with several changes of bathing medium prior to starting drug administrations. All experiments were performed in the presence of cocaine (10 μM) and corticosterone (10 μM), to prevent neuronal and extraneuronal uptake of drugs, and propanolol (1 μM), to block B adrenoreceptors. Cumulative concentration-response curves were obtained to 2-[(5-chloro-2-methoxyphenyl)azo]-1H-imidazole, and to noradrenaline for comparison. […] Increases in developed tension to agonist were plotted and individual EC50 values were determined. From these, pEC50 (negative log of the EC50) values were determined for each experiment and where appropriate mean values of these with standard error of the means calculated.

[2] = tested on: human mesenteric arteries; assay: Agonist potency on human mesenteric artery sections (isometric tension, organ bath); format: cell-based; conditions: for EC50 / mean maximum contraction: human mesenteric arteries; for EC50: endothelium removed, cocaine 10 μM, corticosterone 10 μM, propanolol 1 μM present, read-out: pEC50 (increase in developed tension) (converted); for mean maximum contraction: for the imidazole the maximum occurred at 20 micromolar
Protocol: Determinations were made of agonist potency on human LUT and blood vessel smooth muscle. Tissue sources: human lower urinary tract smooth muscle strips (prostatic/urethral) were obtained from patients undergoing transurethral resection of the prostate procedure for benign prostatic hyperplasia. Human mesenteric arteries (500-750 μm internal diameter) were obtained from patients undergoing bowel resection for carcinoma. Tissues were preserved in Krebs-bicarbonate solution at 4° C. from the time of surgery until used in functional experiments within 24 hours. Sections of mesenteric artery (5 mm in length) were set up between stainless steel stirrups after removal of the endothelium by gentle rubbing. Strips of prostatic/urethral smooth muscle (3×10 mm) and the mesenteric arteries were set up under 1 g resting tension in Krebs solution of composition (mM): NaCl 118.4; KCl 4.7; CaCl2 1.9; NaHCO3 25.0; MgSO4 1.2; KH2PO4 1.2; glucose 11.7, gassed with 5% CO2 in O2 and maintained at 37° C. The tension developed by all tissues was measured by means of isometric force transducers (Lectromed UFI 57G sensitivity) and recorded to computer via a Cambridge Electronic Design 1401 analogue to digital converter, using CHART software. Tissues were equilibrated for 60 minutes with several changes of bathing medium prior to starting drug administrations. All experiments were performed in the presence of cocaine (10 μM) and corticosterone (10 μM), to prevent neuronal and extraneuronal uptake of drugs, and propanolol (1 μM), to block B adrenoreceptors. Cumulative concentration-response curves were obtained to 2-[(5-chloro-2-methoxyphenyl)azo]-1H-imidazole, and to noradrenaline for comparison. For the mesenteric artery preparations following the recording of the final drug response to 2-[(5-chloro-2-methoxyphenyl)azo]-1H-imidazole, a supramaximal concentration of noradrenaline was added as a further test for partial agonism. Increases in developed tension to agonist were plotted and individual EC50 values were determined. From these, pEC50 (negative log of the EC50) values were determined for each experiment and where appropriate mean values of these with standard error of the means calculated.

EC50 [1] [nM]	EC50 [2] [nM]	SMILES	Emax [1] [%]	mean maximum contraction [2] [g]	mean further increase in tension ([2]; noradrenaline 160-210 μM added after the highest concentration of 2-[(5-chloro-2-methoxyphenyl)azo]-1H-imidazole, n=3) [g]	agonist character compared with noradrenaline ([1]; human LUT tissue)	agonist character compared with noradrenaline ([2]; human blood vessels (mesenteric arteries))
3980	661	NC[C@H](O)c1ccc(O)c(O)c1 [Noradrenaline, noradrenaline, reference compound]	63.7 ± 4.8	4.22 ± 2.21	2.7 ± 0.9	–	–
2000	5010	COc1ccc(Cl)cc1N=Nc1ncc[nH]1 [2-[(5-chloro-2-methoxyphenyl)azo]-1H-imidazole]	62.5	1.1 ± 0.7	–	full agonist	partial agonist
